Tests used:
[1] = system: chronic immobilization stress group (STR); experiment: OFT (open field test) after chronic immobilization stress; type: in vivo, mouse; conditions: tyrosine-diet (TD, 181.2 mg/kg) compared to normal diet (ND)
Procedure: The animal models were divided into two groups (i.e., normal group and stress group). The animal of stress group was individually brought by force to a restrainer for 2 hours every day (i.e., between 2 PM and 4 PM) so that it was applied with chronic immobilization stress for 15 days. Change in bodyweight and food intake amount were measured every other day. The normal group and stress group were divided again into a normal diet group and a tyrosine-supplemented diet group (181.2 mg/kg), and then fed. OFT (open field test) was carried out using a rectangular box (60×60×20 cm). Mouse was placed at the center area of box (30×30 cm), and the mouse movement was followed for 5 minutes and total travel distance, center area duration, and frequency of center area entries were measured.

[2] = system: chronic immobilization stress group (STR); experiment: amount of glutamate, glutamine, tyrosine and GABA in PFC by LC-MS/MS; type: in vivo, mouse; conditions: stress group fed tyrosine diet, vs normal group
Excerpt: The Amount of amino acids (glutamate, glutamine, tyrosine) and GABA in the PFC was quantified by liquid chromatography analysis (LC-MS/MS). PFC tissues were lysed first, and the tissue supernatant was collected and diluted with internal reference (L-Glu-d5) and mobile phase. The diluted sample was divided into 5 samples and injected to LC-MS/MS system (Agilent 6460). As for the column, SeQuant ZIC®-HILIC column (2.1×100 mm, 3.5 μm, 100 Å) was used, and, as a mobile phase, acetonitrile containing 0.1% formic acid was used, and the separation was made by using concentration gradient. For detecting the amino acids, multiple reaction monitoring and detection method was employed (m/z of Glu: 148→84, m/z of Gln: 147→84, m/z of GABA: 104→87, and m/z of internal reference: 153→88).

[3] = system: high-fat diet mouse model of type 2 diabetes; experiment: glucose tolerance test; type: in vivo; conditions: HFD+L-Tyr vs HFD; 16 hours fasting, glucose 2 g per 1 kg i.p., 30-120 minutes
Procedure: Twenty-seven C57BL/6 male mice (3-week old) were acclimated to the breeding condition for 1 week. […] Blood glucose was measured every week.
D-glucose was dissolved in 1×PBS to prepare 40% D-glucose solution. Blood glucose of a mouse, which has been subjected to fasting for 16 hours, was measured, and, for having intraperitoneal injection of glucose in an amount of 2 g per 1 kg bodyweight, the animal was intraperitoneally injected with the glucose solution according to the following Formula (1). Glucose injection amount(μl)=Bodyweight(g)×5 Formula (1)
For example, for a mouse with bodyweight of 45 g, 225 μl of 40% glucose solution were injected. After the intraperitoneal injection of glucose solution, blood glucose was measured at time points of 30, 60, 90 and 120 minutes.

IL-6 = IL-6 gene expression in kidney tissues (quantitative real-time PCR), renal ischemia and reperfusion; type: in vivo, mouse; conditions: L-tyrosine 100 mg/kg oral once a day for 4 days, 24 hours after ischemia and reperfusion
Procedure: C57BL/6 male mouse (23 to 25 g, KOATECH, South Korea) was allowed to have free access to diets and water in sterile breeding room with constant temperature and humidity. The animals were divided into 3 test groups, i.e., 1) Control group (Sham), 2) Renal ischemia having treatment with prepared solvent and induced reperfusion group (CMC+IR), and 3) Renal ischemia having treatment with L-tyrosine and induced reperfusion group (L-Tyr+IR).
L-Tyrosine (100 mg/kg) was suspended in 0.5% CMC (carboxymethyl cellulose). The animal was orally administered, once a day for 4 days, with L-tyrosine or the prepared solvent CMC. Thirty minutes after the oral administration on Day 4, renal ischemia was caused. Specifically, the animal abdomen was cut and renal pedicles at both sides were clamped using a Muller atraumatic vascular clamp to cause renal ischemia. After 25 minutes of blood ischemia, the clamp was removed followed by reperfusion. The control group (Sham) received the same operational procedures as above except the ischemia using clamp. […]
According to Trizol method, total RNA was extracted from kidney tissues, and cDNA was synthesized by using Revert Aid Reverse Transcription System (ThermoFisher). Quantitative PCR was carried out with CFX Connect Real-Time PCR system (Bio-Rad) by using iQ SYBR Green Super mix (Bio-Rad). […]

[4] = system: animal model of acute hepatic encephalopathy caused by AOM; experiment: ALT in plasma, hepatic encephalopathy caused by azoxymethane; type: in vivo, mouse; conditions: L-tyrosine 100 mg/kg oral once a day for 4 days, AOM 100 mg/kg i.p.
Procedure: C57BL/6 male mouse (13-week old, KOATECH, South Korea) was allowed to have free access to diets and water in sterile breeding room with constant temperature and humidity. The animals were divided into 3 test groups, i.e., (1) Control group (Control), (2) Carboxymethyl cellulose+azoxymethane treatment group (CMC+AOM), and (3) L-Tyrosine+AOM treatment group (L-Tyr+AOM). L-Tyrosine (100 mg/kg) was suspended in 0.5% CMC (carboxymethyl cellulose). The animal was orally administered, once a day for 4 days, with L-tyrosine or the prepared solvent CMC. Two hours after the oral administration on Day 4, intraperitoneal injection of AOM (100 mg/kg, […]) was carried out. To prevent dehydration, the animal was intraperitoneally injected with […] of physiological saline, 12 hours after the administration of AOM. Four hours after the injection, the test animal was sacrificed, blood was collected from the heart, and the liver tissues were harvested. Blood collected in the above was centrifuged for 15 minutes at 3,000 rpm to separate plasma, and ALT (alanine aminotransferase) as an index of liver cell injury was measured by using ChemiLab GPT Assay Kit (IVD-LAB, Korea). According to the standard measurement method of the kit, absorbance was measured at a wavelength of 340 nm, and then expressed in unit of U/L.

Row | SMILES | center area duration [1] | frequency of center area entries [1] | travel distance [1] | amount of GABA in PFC [2] | amount of glutamate in PFC [2] | amount of glutamine in PFC [2] | amount of tyrosine in PFC [2] | blood glucose, glucose tolerance test [3] | gene expression of IL-6 in kidney tissues (IL-6) | ALT in plasma [4]
1 | N[C@@H](Cc1ccc(O)cc1)C(=O)O [tyrosine] | higher | higher | higher | higher than the amount level of the normal group | higher than the amount level of the normal group | higher than the amount level of the normal group | higher than the amount level of the normal group | – | – | –
2 | N[C@@H](Cc1ccc(O)cc1)C(=O)O [L-tyrosine] | – | – | – | – | – | – | – | statistically significant decrease in blood glucose amount | suppressed | suppressed with statistical significance
